From patent US10703764B2, “Benzopiperazine compositions as BET bromodomain inhibitors” (FORMA Therapeutics, Inc., priority 2013, dated 2020) come the findings set out here.

The target in one assay is T1, BRD4 BD2 (Homo sapiens, UniProt O60885).
T1 construct: made in house
Kind of assay: AlphaScreen binding assay, BRD4 Bromodomain 2. A digest of the protocol: (§1)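 An AlphaScreen competition format was used with His-BRD4 BD1 or BD2 and biotin-H4 K5/8/12/16-acetyl peptide, each at matched final levels of 50 nM (BD1) or 100 nM (BD2). Incubation in HEPES/NaCl buffer with 0.1% BSA and 0.01% Triton X-100 ran ≥1 h before IC50 determination.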
A general note: In Alpha technology, singlet oxygen from a donor bead excites a nearby acceptor bead.

In another assay the target is T2, BRD4 BD1 (Homo sapiens, UniProt O60885).
T2 construct: made in house
Description: AlphaScreen binding assay, BRD4 Bromodomain 1. A digest of the protocol: as §1

The test system of another assay is MV4-11 cells. Description: Oncology cell growth assay (3-day proliferation, CellTiter-Glo). In kind it is cell-based. To be noted: Homo sapiens, MV4-11, 72 h, AML cell line MV4-11, 72 hours, compounds grouped by IC50 range, read-out: MV4-11 IC50 (inhibition of proliferation, gIC50). A digest of the protocol:
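Compounds were serially diluted 3-fold in DMSO, giving final well concentrations from 10 down to 0.0045 μM. MV4-11 cells were then seeded at 3000 cells/well in RPMI 1640 with 10% FBS and incubated 72 hours. CellTiter-Glo signal was measured and gIC50 obtained by four-parameter logistic regression.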

pIC50: −log10 of the molar value. Some results are limits rather than exact numbers.

As to `CC(=O)N1c2ccc(-c3cnn(Cc4noc(C)n4)c3)cc2N(C(=O)C2CC2)C[C@@H]1C` [Example I-668], the pIC50 at BRD4 BD2 is 6.30 to 7.30; at BRD4 BD1 it was 6.00 to 7.00; in the assay on MV4-11 cells, 6.30 to 7.00.

Turning to `CCN(CC)S(=O)(=O)c1cc(-c2ccc3c(c2)N(C(=O)OC(C)C)C[C@H](C)N3C(C)=O)ccc1OC` [Example I-1115], the pIC50 on BRD4 BD2 is 6.30 to 7.30; on BRD4 BD1 it was 6.00 to 7.00; in the assay on MV4-11 cells, 6.30 to 7.00.

Turning to `CC(=O)N1c2ccc(-c3cnn(CC(C)(C)O)c3)cc2N(C(=O)OC2CC(F)(F)C2)C[C@@H]1C` [Example I-28, (S)-3,3-difluorocyclobutyl 4-acetyl-7-(1-(2-hydroxy-2-methylpropyl)-1H-pyrazol-4-yl)-3-methyl-3,4-dihydroquinoxaline-1(2H)-carboxylate], the pIC50 is 6.30 to 7.30 on BRD4 BD2, 6.00 to 7.00 at BRD4 BD1 and under 6.30 in the assay with MV4-11 cells.

Consider `CC(=O)N1c2ccc(-c3cnn(CCO)c3)cc2N(c2nn(C)c3c(F)cccc23)C[C@@H]1C` [Example I-180, 1-[(2S)-4-(7-fluoro-1-methyl-1H-indazol-3-yl)-6-[1-(2-hydroxyethyl)-1H-pyrazol-4-yl]-2-methyl-1,2,3,4-tetrahydroquinoxalin-1-yl]ethan-1-one], for which the pIC50 on BRD4 BD2 was over 7.30; on BRD4 BD1, 5.00 to 6.00; in the assay with MV4-11 cells, 6.30 to 7.00.

On to `CC(=O)N1c2ccc(-c3cn[nH]c3)cc2N(C(=O)OC2CCCC2)C[C@@H]1C` [Example I-20, (S)-cyclopentyl 4-acetyl-3-methyl-7-(1H-pyrazol-4-yl)-3,4-dihydro-quinoxaline-1(2H)-carboxylate], for which the pIC50 is 6.30 to 7.30 on BRD4 BD2, over 7.00 at BRD4 BD1 and 6.30 to 7.00 in the assay with MV4-11 cells.

Regarding `CC(=O)N1c2ccc(-c3ccc(N4CCCC4=O)cc3)cc2N(C(=O)OC2CCOCC2)C[C@@H]1C` [Example I-1268], the figures for the pIC50 at BRD4 BD2, on BRD4 BD1 and in the assay on MV4-11 cells were 6.30 to 7.30, 6.00 to 7.00 and 6.30 to 7.00, respectively.

Regarding `CC(=O)N1c2ccc(-c3ccc(S(=O)(=O)n4cccn4)cc3)cc2N(C(=O)C2CCC2)C[C@@H]1C` [Example I-1116], the pIC50 at BRD4 BD2 is 6.30 to 7.30; at BRD4 BD1, 5.00 to 6.00; with MV4-11 cells it was under 6.30.

With `COC(=O)N1c2ccc(-c3cnn(CCN4CCCC4=O)c3)cc2N(C(=O)OC(C)C)C[C@@H]1C` [Example I-628], the pIC50 on BRD4 BD2 is 6.30 to 7.30; on BRD4 BD1, 6.00 to 7.00; in the assay with MV4-11 cells, 6.30 to 7.00.

As for `CCCOC(=O)N1C[C@H](C)N(C(C)=O)c2ccc(-c3ccc(S(C)(=O)=O)cc3)cc21` [Example I-252], the pIC50 on BRD4 BD2 is 6.30 to 7.30; at BRD4 BD1, 6.00 to 7.00; in the assay on MV4-11 cells it was 6.30 to 7.00.

For the compound `CC(=O)N1c2ccc(-c3ccc(N4CCCS4(=O)=O)c(F)c3)cc2N(C(=O)OC(C)C)C[C@@H]1C` [Example I-1156], the pIC50 at BRD4 BD2 is 6.30 to 7.30; at BRD4 BD1, 6.00 to 7.00; in the assay on MV4-11 cells, 6.30 to 7.00.

For the compound `CCOC(=O)N1C[C@H](C)N(C(C)=O)c2ccc(-c3ccc(S(C)(=O)=O)cc3)cc21` [Example I-224], the pIC50 at BRD4 BD2 is 6.30 to 7.30; on BRD4 BD1 it was 6.00 to 7.00; in the assay on MV4-11 cells, under 6.30.

In the case of `CC(=O)N1c2ccc(-c3ccc(S(=O)(=O)CCN)cc3)cc2N(C(=O)C2CC2)C[C@@H]1C` [Example I-447], the pIC50 at BRD4 BD2 was 6.30 to 7.30; at BRD4 BD1 it was 5.00 to 6.00; with MV4-11 cells, under 6.30.

Regarding `CC(=O)N1c2ccc(-c3ccc(C(=O)N4CCNCC4)cc3)cc2N(C(=O)C2CC2)C[C@@H]1C` [Example I-437], the pIC50 is 6.30 to 7.30 at BRD4 BD2, 6.00 to 7.00 at BRD4 BD1 and 6.30 to 7.00 with MV4-11 cells.

For `CC(=O)N1c2ccc(-c3cnn(C4CC4)c3)cc2N(c2n[nH]c3ccccc23)C[C@@H]1C` [Example I-93, (S)-1-(6-(1-cyclopropyl-1H-pyrazol-4-yl)-4-(1H-indazol-3-yl)-2-methyl-3,4-dihydroquinoxalin-1 (2H)-yl)ethan-1-one], the pIC50 was 6.30 to 7.30 at BRD4 BD2, 6.00 to 7.00 at BRD4 BD1 and over 7.00 in the assay on MV4-11 cells.

In the case of `CC(C)OC(=O)N1C[C@H](C)N(C(=O)C2CC2)c2ccc(-c3cnn(CC(C)(C)O)c3)cc21` [Example I-328], the figures for the pIC50 on BRD4 BD2, at BRD4 BD1 and with MV4-11 cells were 6.30 to 7.30, 6.00 to 7.00 and 6.30 to 7.00, respectively.

Consider `CC(C)OC(=O)N1C[C@H](C)N(C(=O)C2CC2)c2ccc(-c3ccc(C(=O)N4CCNCC4)cc3)cc21` [Example I-558], for which the pIC50 on BRD4 BD2 was 6.30 to 7.30; at BRD4 BD1, 6.00 to 7.00; with MV4-11 cells it was 6.30 to 7.00.

As for `CC(=O)N1c2ccc(-c3ccc(C(=O)N4CCNCC4)cc3)cc2N(C(=O)c2ccco2)C[C@@H]1C` [Example I-422], the figures for the pIC50 on BRD4 BD2, at BRD4 BD1 and in the assay with MV4-11 cells were over 7.30, 6.00 to 7.00 and 6.30 to 7.00, respectively.

Turning to `CC(=O)N1c2ccc(-c3ccc(S(C)(=O)=O)cc3)cc2N(C(=O)OC2CCCC2)C[C@@H]1C` [Example I-236], the pIC50 on BRD4 BD2 is under 6.30; at BRD4 BD1 it was 5.00 to 6.00; in the assay with MV4-11 cells it was under 6.30.

For `COC(=O)N1c2ccc(-c3cnn(CC4COC4)c3)cc2N(C(=O)OC(C)C)C[C@@H]1C` [Example I-644], the pIC50 at BRD4 BD2 is 6.30 to 7.30; on BRD4 BD1 it was 6.00 to 7.00; with MV4-11 cells, under 6.30.

For `CC(=O)N1c2ccc(-c3ccc(S(=O)(=O)N(C)C)cc3)cc2N(C(=O)OC(C)C)C[C@@H]1C` [Example I-1126], the pIC50 was 6.30 to 7.30 on BRD4 BD2, 5.00 to 6.00 on BRD4 BD1 and 6.30 to 7.00 with MV4-11 cells.

For the compound `CC(=O)N1c2ccc(-c3ccc(S(C)(=O)=O)cc3)cc2N(C(=O)c2ccco2)C[C@@H]1C` [Example I-817], the figures for the pIC50 at BRD4 BD2, at BRD4 BD1 and in the assay with MV4-11 cells were over 7.30, 5.00 to 6.00 and 6.30 to 7.00, respectively.

For the compound `CC(=O)N1c2ccc(-c3cnn(Cc4c(C)noc4C)c3)cc2N(C(=O)OC(C)C)C[C@@H]1C` [Example I-602], the pIC50 on BRD4 BD2 is over 7.30; on BRD4 BD1, 6.00 to 7.00; with MV4-11 cells, 6.30 to 7.00.

Regarding `CCCCOC(=O)N1C[C@H](C)N(C(C)=O)c2ccc(-c3ccc(S(C)(=O)=O)cc3)cc21` [Example I-231], the pIC50 at BRD4 BD2 is 6.30 to 7.30; on BRD4 BD1, 6.00 to 7.00; with MV4-11 cells it was 6.30 to 7.00.

`CC(=O)N1c2ccc(-c3ccc(F)c(S(C)(=O)=O)c3)cc2N(C(=O)OC2CCOCC2)C[C@@H]1C` [Example I-1250]: the results for the pIC50 at BRD4 BD2, on BRD4 BD1 and in the assay on MV4-11 cells were under 6.30, 5.00 to 6.00 and under 6.30, respectively.

`CC(=O)N1c2ccc(-c3cnn(C4COC4)c3)cc2N(C(=O)OCC(F)(F)F)C[C@@H]1C` [Example I-71, (S)-2,2,2-trifluoroethyl 4-acetyl-3-methyl-7-(1-(oxetan-3-yl)-1H-pyrazol-4-yl)-3,4-dihydroquinoxaline-1(2H)-carboxylate]: the pIC50 was over 7.30 at BRD4 BD2, over 7.00 on BRD4 BD1 and 6.30 to 7.00 with MV4-11 cells.

For `CC(=O)N1c2ccc(-c3cnn(C4COC4)c3)cc2N(C(=O)OCC(C)(C)F)C[C@@H]1C` [Example I-77, (S)-2-fluoro-2-methylpropyl 4-acetyl-3-methyl-7-(1-(oxetan-3-yl)-1H-pyrazol-4-yl)-3,4-dihydroquinoxaline-1(2H)-carboxylate], the values for the pIC50 at BRD4 BD2, on BRD4 BD1 and in the assay on MV4-11 cells were over 7.30, over 7.00 and 6.30 to 7.00, respectively.

Turning to `CC(=O)N1c2ccc(-c3ccc(NS(C)(=O)=O)cc3)cc2N(C(=O)Oc2ccc(F)cc2)C[C@@H]1C` [Example I-1019], the pIC50 on BRD4 BD2 is over 7.30; at BRD4 BD1, 6.00 to 7.00; in the assay with MV4-11 cells, 6.30 to 7.00.

In the case of `CC(=O)N1c2ccc(-c3cnn(Cc4cncnc4)c3)cc2N(C(=O)C2CC2)C[C@@H]1C` [Example I-128, (S)-1-(4-(cyclopropanecarbonyl)-2-methyl-6-(1-(pyrimidin-5-ylmethyl)-1H-pyrazol-4-yl)-3,4-dihydroquinoxalin-1(2H)-yl)ethanone], the figures for the pIC50 at BRD4 BD2, on BRD4 BD1 and with MV4-11 cells were over 7.30, 5.00 to 6.00 and 6.30 to 7.00, respectively.

With `CC(=O)N1c2ccc(-c3cccc(NS(=O)(=O)N(C)C)c3)cc2N(C(=O)OC(C)C)C[C@@H]1C` [Example I-1146], the pIC50 on BRD4 BD2 is 6.30 to 7.30; at BRD4 BD1 it was 6.00 to 7.00; in the assay with MV4-11 cells, 6.30 to 7.00.

Take `COc1cccc(OC(=O)N2C[C@H](C)N(C(C)=O)c3ccc(-c4cnn(C5CC5)c4)cc32)c1` [Example I-500]: the pIC50 at BRD4 BD2 is 6.30 to 7.30; on BRD4 BD1, 6.00 to 7.00; with MV4-11 cells, 6.30 to 7.00.

With `CC(C)OC(=O)N1C[C@H](C)N(C(=O)C2CC2)c2ccc(-c3ccc(C(=O)N4CC[C@@H](N(C)C)C4)cc3)cc21` [Example I-564], the pIC50 is 6.30 to 7.30 on BRD4 BD2, 6.00 to 7.00 on BRD4 BD1 and 6.30 to 7.00 in the assay on MV4-11 cells.

As for `CC(C)OC(=O)N1C[C@H](C)N(C(=O)C2CC2)c2ccc(-c3cnn(CCS(C)(=O)=O)c3)cc21` [Example I-309], the values for the pIC50 on BRD4 BD2, on BRD4 BD1 and in the assay on MV4-11 cells were 6.30 to 7.30, 6.00 to 7.00 and under 6.30, respectively.

Take `CC(=O)N1c2ccc(-c3cnn(C4CC4)c3)cc2N(C(=O)Oc2ccccc2)C[C@@H]1C` [Example I-256]: the pIC50 was over 7.30 on BRD4 BD2, 6.00 to 7.00 at BRD4 BD1 and over 7.00 in the assay on MV4-11 cells.

On to `CCOC(=O)N1C[C@H](C)N(C(C)=O)c2ccc(-c3ccc(OC)c(S(=O)(=O)N(CC)CC)c3)cc21` [Example I-1114], for which the pIC50 is 6.30 to 7.30 at BRD4 BD2, 6.00 to 7.00 at BRD4 BD1 and under 6.30 in the assay with MV4-11 cells.

As for `CC(=O)N1c2ccc(-c3ccc(NS(C)(=O)=O)c(F)c3)cc2N(C(=O)OC(C)C)C[C@@H]1C` [Example I-1183], the pIC50 on BRD4 BD2 is over 7.30; at BRD4 BD1, 6.00 to 7.00; with MV4-11 cells, 6.30 to 7.00.
